The nature of data set [1]: Volume of distribution at steady state in Wistar Han rat at 2 mg/kg,iv administrated for 24 hrs by LC-MS/MS analysis. It is filed as ADME, organism-based. Conditions: in vivo, read-out: Vdss; call rule not given here.
Data set [2] is described as follows: Oral bioavailability in Wistar Han rat at 5 mg/kg administrated for 24 hrs by LC-MS/MS analysis. It is filed as ADME, organism-based. The note with it: in vivo.
Data set [3] is described as follows: AUC (0-infinity) in Wistar Han rat at 2 mg/kg,iv administrated for 24 hrs by LC-MS/MS analysis. Conditions: in vivo. It counts as ADME, organism-based. Also on record: time 24 hrs, dose 2 mg/kg, route iv.
Data set [4] in a line: Drug concentration in M22-induced Wistar rat plasma at 12.5 micromol/kg,po measured upto 24 hrs by LC-MS/MS analysis. It is filed as ADME, cell-free. Conditions: dose 12.5 µmol/kg.
Data set [5] can be described thus: Cmax in Wistar Han rat at 5 mg/kg,po administrated for 24 hrs by LC-MS/MS analysis. It is filed as ADME, organism-based. Also on record: dose 5 mg/kg, time 24 hrs, route po. The note with it: in vivo.
The nature of data set [6]: Drug concentration in M22-induced Wistar rat plasma at 12.5 to 100 micromol/kg,po measured upto 24 hrs by LC-MS/MS analysis. It counts as ADME, cell-free. Conditions: dose 12.5-100 µmol/kg.
The nature of data set [7]: AUC (0-infinity) in Wistar Han rat at 5 mg/kg,po administrated for 24 hrs by LC-MS/MS analysis. It counts as ADME, organism-based. Also on record: time 24 hrs, dose 5 mg/kg, route po. Conditions: in vivo.
A short description of data set [8]: Tmax in Wistar Han rat at 5 mg/kg,po administrated for 24 hrs by LC-MS/MS analysis. It counts as ADME, organism-based. The note with it: in vivo.

Usually bioavailability stands for the share of a dose that reaches the circulation, judged against a reference dose that is usually intravenous. Low readings indicate poor availability, high ones good availability. By AUC(0-inf) is commonly meant total exposure, with the tail of the curve extrapolated. Lower therefore signals less exposure. For orientation: Cmax means the peak of the concentration-time curve. The term Tmax denotes the time from dosing to the highest level. For the compound `CC(=O)N1c2cnc(NC(=O)O[C@@H](C)C(C)(C)C)nc2C2(CCC(F)(F)CC2)C1(C)C`, in data set [1], the Vd stood at 8.76 L/kg. Moreover, the bioavailability in data set [2] was 47%. Also, the values for the AUC(0-inf) in data set [3] and in data set [7] were 617 ng·h/mL and 709 ng·h/mL, respectively. In addition, the values for the Drug uptake result in data set [4] and in data set [6] were “Not Active” and “Active”, respectively. In data set [5], this compound gave a Cmax of 145 ng/mL. Moreover, the Tmax in data set [8] was 1 h.
For the compound `CC(=O)N1CCC(C)(c2ccccc2)c2cc(NC(=O)CCc3cccc(C(F)(F)F)c3)ccc21` (racemic), the Vd in data set [1] is 2.41 L/kg. Besides, the bioavailability in data set [2] was 8%. Further, the results for the AUC(0-inf) in data set [3] and in data set [7] were 694 ng·h/mL and 141 ng·h/mL, respectively. In data set [5], this compound had a Cmax of 52 ng/mL. For the same compound, the Tmax in data set [8] was 1 h.

The record behind these values is ChEMBL document CHEMBL5252644, “Discovery of SYD5115, a novel orally active small molecule TSH-R antagonist” (Bioorg Med Chem, 2023).
